In ChEMBL document CHEMBL1201862, “PubChem BioAssay data set” (2004):
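Protocol summary: plate cells (96-well), add compound at 5 concentrations, incubate 48 h, interpolate endpoints linearly. Here, GI50 denotes the concentration required for 50% inhibition of growth.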 Activity calls are given as the source filed them. No stated cut-off is given here; in the data, active = GI50 up to about 1.1 µM and inactive = higher.

Assays:
Assay in all cases: growth of human tumour cells (NCI), 48 h
[1] = tested on: OVCAR-3
[2] = tested on: IGROV-1
[3] = tested on: HCC 2998
[4] = tested on: MDA-MB-231
[5] = tested on: A549
[6] = tested on: 786-0
[7] = tested on: BT-549
[8] = tested on: OVCAR-5
[9] = tested on: CAKI-1
[10] = tested on: UACC-257
[11] = tested on: SF-539
[12] = tested on: SK-MEL-28
[13] = tested on: SF-268
[14] = tested on: SR
[15] = tested on: K562
[16] = tested on: SK-OV-3
[17] = tested on: NCI-H460
[18] = tested on: MDA-N
[19] = tested on: NCI-H522
[20] = tested on: RXF 393

Compound	GI50 [1]	GI50 [2]	GI50 [3]	GI50 [4]	GI50 [5]	GI50 [6]	GI50 [7]	GI50 [8]	GI50 [9]	GI50 [10]	GI50 [11]	GI50 [12]	GI50 [13]	GI50 [14]	GI50 [15]	GI50 [16]	GI50 [17]	GI50 [18]	GI50 [19]	GI50 [20]
CCOC(=O)/C(=C\c1ccccc1)C(=O)CCN1CCOCC1	7.41 µM (inactive)	15.2 µM (inactive)	17.8 µM (inactive)	13.5 µM (inactive)	22.4 µM (inactive)	7.78 µM (inactive)	16.7 µM (inactive)	17.4 µM (inactive)	4.49 µM (inactive)	4.58 µM (inactive)	7.26 µM (inactive)	3.54 µM (inactive)	8.17 µM (inactive)	2.1 µM (inactive)	1.57 µM (inactive)	23 µM (inactive)	14.4 µM (inactive)	6.03 µM (inactive)	1.67 µM (inactive)	2.86 µM (inactive)
Cc1csc2n(C)c(=O)c3ccccc3[n+]12	> 100 µM (inactive)	> 100 µM (inactive)	> 100 µM (inactive)	> 100 µM (inactive)	> 100 µM (inactive)	> 100 µM (inactive)	79.4 µM (inactive)	> 100 µM (inactive)	> 100 µM (inactive)	> 100 µM (inactive)	> 100 µM (inactive)	> 100 µM (inactive)	> 100 µM (inactive)	> 100 µM (inactive)	> 100 µM (inactive)	> 100 µM (inactive)	> 100 µM (inactive)	> 100 µM (inactive)	> 100 µM (inactive)	> 100 µM (inactive)
O=C(O)c1ccc(Nc2nc3cc(C(F)(F)F)ccc3n3cccc23)cc1	30.2 µM (inactive)	29.5 µM (inactive)	15.7 µM (inactive)	19.7 µM (inactive)	30.5 µM (inactive)	22.7 µM (inactive)	35.7 µM (inactive)	40.8 µM (inactive)	47.3 µM (inactive)	30.2 µM (inactive)	23.3 µM (inactive)	46.2 µM (inactive)	40.6 µM (inactive)	14.3 µM (inactive)	15.3 µM (inactive)	40.1 µM (inactive)	16.1 µM (inactive)	54.6 µM (inactive)	23.4 µM (inactive)	17.1 µM (inactive)
CCOP(=O)(OCC)c1c(C(=O)OC)cc(=O)[nH]c1-c1ccc(C)cc1	11.1 µM (inactive)	6.43 µM (inactive)	18.1 µM (inactive)	25.1 µM (inactive)	15.2 µM (inactive)	20.6 µM (inactive)	7.71 µM (inactive)	5.64 µM (inactive)	5.46 µM (inactive)	15.6 µM (inactive)	7.87 µM (inactive)	18.5 µM (inactive)	19.4 µM (inactive)	3.03 µM (inactive)	10.4 µM (inactive)	22.8 µM (inactive)	19.1 µM (inactive)	24.8 µM (inactive)	0.968 µM (active)	12.5 µM (inactive)
CCCC(=O)NC(Nc1ccc(S(=O)(=O)Nc2ccc(OC)nn2)cc1)(C(F)(F)F)C(F)(F)F	> 100 µM (inactive)	> 100 µM (inactive)	> 100 µM (inactive)	> 100 µM (inactive)	> 100 µM (inactive)	> 100 µM (inactive)	> 100 µM (inactive)	> 100 µM (inactive)	> 100 µM (inactive)	> 100 µM (inactive)	> 100 µM (inactive)	> 100 µM (inactive)	> 100 µM (inactive)	> 100 µM (inactive)	> 100 µM (inactive)	> 100 µM (inactive)	> 100 µM (inactive)	> 100 µM (inactive)	> 100 µM (inactive)	> 100 µM (inactive)
COc1cc(C2c3cc4c(cc3OC(NNc3ccccc3)C2C)OCO4)cc(OC)c1OC (stereo not given)	0.993 µM (active)	1.26 µM (inactive)	0.953 µM (active)	3.26 µM (inactive)	1.6 µM (inactive)	1.1 µM (active)	1.01 µM (active)	1.69 µM (inactive)	0.982 µM (active)	2.07 µM (inactive)	0.571 µM (active)	1.57 µM (inactive)	1.86 µM (inactive)	0.673 µM (active)	0.437 µM (active)	2.08 µM (inactive)	1.02 µM (active)	0.255 µM (active)	0.977 µM (active)	1.54 µM (inactive)
N=c1c2c(=S)n(-c3ccccc3)c(=S)n(-c3ccccc3)c2nc(SCCN2CCOCC2)n1-c1ccccc1	1.8 µM (inactive)	1.76 µM (inactive)	1.77 µM (inactive)	2.12 µM (inactive)	1.78 µM (inactive)	1.76 µM (inactive)	1.98 µM (inactive)	18.4 µM (inactive)	1.94 µM (inactive)	2.11 µM (inactive)	3.83 µM (inactive)	2.1 µM (inactive)	1.79 µM (inactive)	0.475 µM (active)	1.47 µM (inactive)	6.1 µM (inactive)	2.49 µM (inactive)	2.26 µM (inactive)	1.67 µM (inactive)	1.79 µM (inactive)
O=C1CC(O)c2c(Br)sc(Br)c21 (stereo not given)	4.69 µM (inactive)	15.9 µM (inactive)	6 µM (inactive)	15.2 µM (inactive)	19.3 µM (inactive)	4.1 µM (inactive)	29.7 µM (inactive)	21.3 µM (inactive)	2.07 µM (inactive)	3.85 µM (inactive)	6.5 µM (inactive)	15.7 µM (inactive)	18.1 µM (inactive)	5.25 µM (inactive)	2.8 µM (inactive)	16.6 µM (inactive)	16.9 µM (inactive)	8.81 µM (inactive)	8.28 µM (inactive)	2.5 µM (inactive)
COc1ccc(C2c3cc4c(cc3OC3(OC)COC(=O)C23)OCO4)c(OC)c1 (stereo not given)	4.72 µM (inactive)	10.5 µM (inactive)	30 µM (inactive)	27.1 µM (inactive)	10.1 µM (inactive)	11.3 µM (inactive)	6.56 µM (inactive)	54.7 µM (inactive)	7.43 µM (inactive)	6.24 µM (inactive)	4.62 µM (inactive)	18.4 µM (inactive)	14.6 µM (inactive)	4.49 µM (inactive)	5.08 µM (inactive)	15.9 µM (inactive)	7.14 µM (inactive)	1.77 µM (inactive)	2.43 µM (inactive)	6.59 µM (inactive)
COc1ccc(C(C)NNC(=O)c2cc[n+]([BH2-]C#N)cc2)cc1F (stereo not given)	> 100 µM (inactive)	> 100 µM (inactive)	> 100 µM (inactive)	> 100 µM (inactive)	> 100 µM (inactive)	> 100 µM (inactive)	> 100 µM (inactive)	> 100 µM (inactive)	> 100 µM (inactive)	> 100 µM (inactive)	> 100 µM (inactive)	> 100 µM (inactive)	> 100 µM (inactive)	> 100 µM (inactive)	> 100 µM (inactive)	> 100 µM (inactive)	> 100 µM (inactive)	> 100 µM (inactive)	> 100 µM (inactive)	> 100 µM (inactive)
